Reference: patent US8679514B2, “Fungicidal mixtures based on azolopyrimidinylamines” (BASF SE, priority 2005, dated 2014)
Like-named read-outs stand apart in the source and are kept apart here.

Tests used:
Plasmopara viticola [1] = experiment: whole plant or invertebrate; type: in vivo; conditions: read-out: Observed activity (%)
Phytophthora infestans [2] = experiment: microbe, parasite or virus in culture; type: cell-based; conditions: for inhibition at 0.016 µg/mL / inhibition at 0.25 µg/mL / inhibition at 1 µg/mL / inhibition at […]: Phytophthora infestans, read-out: Observed activity (%)
Botrytis cinerea = experiment: Activity against the gray mold pathogen Botrytis cinerea in the microtiter test; type: cell-based; conditions: Botrytis cinerea, single active compound, read-out: Observed activity (%); for inhibition at […]: Conc. 0.063 mg/l; for inhibition at 0.25 µg/mL: Conc. 0.25 mg/l; for inhibition at 16 µg/mL: Conc. 16 mg/l
Phytophthora infestans [3] = experiment: whole plant or invertebrate; type: in vivo; conditions: for Observed activity (%): in vivo
Pyricularia oryzae = experiment: microbe, parasite or virus in culture; type: cell-based; conditions: Pyricularia oryzae, read-out: Observed activity (%)
Plasmopara viticola [4] = experiment: whole plant or invertebrate; type: in vivo; conditions: read-out: Observed activity (%); remark: listed apart in the source
Phytophthora infestans [5] = experiment: whole plant or invertebrate; type: in vivo; conditions: 144 h, read-out: Efficacy in % of the untreated control
Septoria tritici = experiment: Activity against the speckled leaf blotch pathogen Septoria tritici in the microtiter test; type: cell-based; conditions: single active compound

CC1(c2ccc(Oc3ccccc3)cc2)OC(=O)N(Nc2ccccc2)C1=O (racemic) [famoxadone, (RS)-3-anilino-5-methyl-5-(4-phenoxyphenyl)-1,3-oxazolidine-2,4-dione]
inhibition at 4 µg/mL (Plasmopara viticola [1]): 0%

CCCCCCCCc1c(CC)nc2ncnn2c1N [Compound I-110, 5-ethyl-6-octyl-[1,2,4]triazolo[1,5-a]pyrimidin-7-ylamine]
inhibition at 0.016 µg/mL (Phytophthora infestans [2]): 1% | inhibition at 0.25 µg/mL (Phytophthora infestans [2]): 5% | inhibition at 1 µg/mL (Phytophthora infestans [2]): 59% | inhibition at […] (Phytophthora infestans [2]): 3% | inhibition at 0.25 µg/mL (Plasmopara viticola [1]): 0% | inhibition at 4 µg/mL (Plasmopara viticola [1]): 0% | inhibition at […] (Botrytis cinerea): 8% | inhibition at 0.25 µg/mL (Botrytis cinerea): 18% | inhibition at 4 µg/mL (Phytophthora infestans [3]; Phytophthora infestans, read-out: Observed activity (%)): 11% | inhibition at 16 µg/mL (Pyricularia oryzae): 8% | inhibition at 4 µg/mL (Plasmopara viticola [4]): 0%

CCCCCCCCc1c(CC)nc2nc(N)nn2c1N [Compound I-120, 5-ethyl-6-octyl-[1,2,4]triazolo[1,5-a]pyrimidine-2,7-diamine]
pest or weed control at 16 ppm (Phytophthora infestans [5]): 33% | inhibition at 0.016 µg/mL (Phytophthora infestans [2]): 0% | inhibition at 0.25 µg/mL (Phytophthora infestans [2]): 6% | inhibition at […] (Phytophthora infestans [2]): 2% | inhibition at […] (Botrytis cinerea): 0% | inhibition at 1 µg/mL (Botrytis cinerea; Conc. 1 mg/l): 9% | inhibition at 16 µg/mL (Botrytis cinerea): 15% | inhibition at […] (Septoria tritici; Zymoseptoria tritici, 0.063 mg/l, read-out: Observed activity (%)): 0% | inhibition at 16 µg/mL (Pyricularia oryzae): 25%

CCCCCCCCc1c(CCC)nc2ncnn2c1N [Compound I-180, 6-octyl-5-propyl-[1,2,4]triazolo[1,5-a]pyrimidin-7-ylamine]
pest or weed control at 16 ppm (Phytophthora infestans [5]): 0% | pest or weed control at 63 ppm (Phytophthora infestans [5]): 33% | inhibition at 0.016 µg/mL (Phytophthora infestans [2]): 0% | inhibition at 0.25 µg/mL (Phytophthora infestans [2]): 8% | inhibition at 1 µg/mL (Phytophthora infestans [2]): 17% | inhibition at […] (Phytophthora infestans [2]): 2% | inhibition at 0.016 µg/mL (Botrytis cinerea; Conc. 0.016 mg/l): 3% | inhibition at 0.25 µg/mL (Botrytis cinerea): 13% | inhibition at 1 µg/mL (Pyricularia oryzae): 15%

CCCCCCCCc1c(COC)nc2ncnn2c1N [Compound I-245, 5-methoxymethyl-6-octyl-[1,2,4]triazolo[1,5-a]pyrimidin-7-ylamine]
pest or weed control at 4 ppm (Phytophthora infestans [5]): 0% | inhibition at 0.016 µg/mL (Phytophthora infestans [2]): 0% | inhibition at 0.25 µg/mL (Phytophthora infestans [2]): 12% | inhibition at […] (Phytophthora infestans [2]): 0% | inhibition at 0.25 µg/mL (Botrytis cinerea): 0% | inhibition at 0.25 µg/mL (Pyricularia oryzae): 10% | inhibition at 16 µg/mL (Pyricularia oryzae): 23%

[Cu+2].[OH-].[OH-] [Cu(OH)2, copper hydroxide, reference compound]
Observed activity (%) (Phytophthora infestans [2]): 2% | Observed activity (%) (Phytophthora infestans [3]): 11%

COC(=O)NCc1cc(C(C)=NOCc2cccc(C)c2)ccc1Cl [[B-6], methyl (2-chloro-5-[1-(3-methylbenzyloxyimino)-ethyl]benzyl)carbamate, reference compound]
inhibition at 0.25 µg/mL (Phytophthora infestans [2]): 10% | inhibition at 16 µg/mL (Plasmopara viticola [1]): 0% | inhibition at 16 µg/mL (Botrytis cinerea): 53%

COC(=O)CC(NC(=O)C(NC(=O)OC(C)C)C(C)C)c1ccc(Cl)cc1 (stereo not shown) [[E-7], methyl 3-(4-chlorophenyl)-3-(2-isopropoxycarbonylamino-3-methyl-butyrylamino)propanoate]
inhibition at 0.25 µg/mL (Plasmopara viticola [1]): 0%

Cc1c(Br)c2ccc(F)cc2n1S(=O)(=O)c1ncn(S(=O)(=O)N(C)C)n1 [amidosulbrom, N,N-dimethyl-3-(3-bromo-6-fluoro-2-methylindole-1-sulfonyl)-[1,2,4]triazole-1-sulfonamide]
inhibition at 4 µg/mL (Plasmopara viticola [1]): 22%

CCNC(=O)NC(=O)C(C#N)=NOC [cymoxanil, 1-(2-cyano-2-methoxyiminoacetyl)-3-ethylurea, reference compound]
inhibition at 16 µg/mL (Pyricularia oryzae): 12% | inhibition at 16 µg/mL (Plasmopara viticola [4]): 33%

COc1ccc(C(=CC(=O)N2CCOCC2)c2ccc(Cl)cc2)cc1OC [dimethomorph, 3-(4-chlorophenyl)-3-(3,4-dimethoxyphenyl)-1-morpholin-4-ylpropenone, reference compound]
pest or weed control at 4 ppm (Phytophthora infestans [5]): 33% | inhibition at 16 µg/mL (Plasmopara viticola [4]): 67%

N#Cc1sc2c(=O)c3ccccc3c(=O)c=2sc1C#N [dithianon, 5,10-dioxo-5,10-dihydronaphtho[2,3-b][1,4]dithiin-2,3-dicarbonitrile]
inhibition at 16 µg/mL (Plasmopara viticola [4]): 0%

CCNc1nc(CC)c(C(=O)NC(C#N)c2cccs2)s1 (stereo not shown) [ethaboxam, N-(cyano-2-thienylmethyl)-4-ethyl-2-(ethylamino)-5-thiazolcarboxamide]
inhibition at 0.25 µg/mL (Plasmopara viticola [1]): 33%

Cc1ccc(C(C)NC(=O)[C@@H](NC(=O)OC(C)C)C(C)C)cc1 (stereo partly drawn) [iprovalicarb, isopropyl [(1S)-2-methyl-1-(1-p-tolylethylcarbamoyl)propyl]carbamate]
inhibition at 4 µg/mL (Plasmopara viticola [1]): 0%

CCC(=O)C1=C([O-])CC(C(=O)[O-])CC1=O.[Ca+2] (stereo not shown) [prohexadione-Ca, reference compound]
Observed activity (%) (Septoria tritici; 0.25 mg/l): 5%

manganese ethylenebis(dithiocarbanate) zinc complex [mancozeb]
Observed activity (%) (Phytophthora infestans [3]): 11%

phosphorous acid disodium salt [phosphorous acid disodium salt (Na2HPO3), reference compound]
Observed activity (%) (Phytophthora infestans [2]): 6% | Observed activity (%) (Phytophthora infestans [3]): 33%
